Experiments:
GRP94 [1] = biological target: T1, GRP94 (Sus scrofa, UniProt Q29092); test: Fluorophore binding to native and heat shocked GRP94 (fluorescence emission); parameters: species or system porcine; settings: for fluorophore binding to native versus heat shocked GRP94 (fluorescence emission): 0.5 μM GRP94, 5 μM probe, 37° C.
T1 construct: GRP94 was purified from porcine pancreas rough microsomes; from tissue; host or cells: porcine pancreas rough microsomes (lumenal contents)
Source text: Fluorophore Binding Reactions.
Fluorescence Measurements. […] All spectra were background corrected.
To characterize the structural basis for the heat shock dependent activation of GRP94 activity, the interaction of polarity-sensitive fluorophores with native and heat shocked GRP94 was examined. The three probes tested, Prodan (6-propionyl-2-(dimethylamino)naphthalene), 8-ANS (1,8-anilinonaphthalenesulfonate) and bis-ANS (bis(1,8-anilino-naphthalenesulfonate) are structurally related probes that bind to hydrophobic sites on proteins and undergo substantial fluorescence spectrum changes upon introduction into nonpolar environments, as discussed by Rosen & Weber (1969) Biochemistry 8:3915-3920; Weber & Farris (1979) Biochemistry 18:3075-3078; Takashi et al. (1977) Proc Natl Acad Sci USA 74:2334-2338; Shi et al. (1994) Biochemistry 33:7536-7546. The following experimental protocol was utilized. GRP94 was warmed to 37° C. and either maintained at 37° C. or heat shocked for 15 minutes at 50° C., followed by incubation at 37° C. Subsequently, probe stocks were added to the GRP94 stocks and emission spectra recorded after 30 min at 37° C.
Under the experimental conditions used in this series of experiments, bis-ANS binding to GRP94 was near maximal at a 20-fold molar excess of GRP94 monomer over bis-ANS, with half maximal binding observed at 110 nM GRP94 (FIG. 2B).

GRP94 [2] = biological target: T1, GRP94; test: [3H]-NECA competitive displacement assay; type: binding, porcine; settings: for effect of excess Mg2+ on binding to GRP94: 10 mM Mg(OAc)2 versus nominal magnesium; for nucleoside base specificity: binding to GRP94 by [3H]-NECA displacement: competitors at 50 μM
Description: Where indicated, binding reactions were performed in either buffer C (10 mM Tris, pH 7.5, 50 mM KCl, 5 mM MgCl2, 2 mM DTT, 0.01% NP-40, 20 mM Na2MoO4) or 50 mM Tris, pH 7.5, 10 mM Mg(OAc)2. […] Vacuum filtration was performed with an Amersham Pharmacia Biotech (Piscataway, N.J.) vacuum filtration manifold.
All binding reactions were performed in triplicate and corrected by subtraction of background values, determined in binding reactions lacking GRP94.

GRP94 [3] = biological target: T1, GRP94; test: Tryptophan fluorescence (tertiary conformational state); type: biochemical, porcine; settings: 50 μM NECA, 50 μM geldanamycin, 2.5 mM ATP or 2.5 mM ADP; 1 h 37° C.
Description: Tryptophan Fluorescence. Tryptophan fluorescence measurements were conducted in a FLUOROMAX™ spectrofluorometer (Spex Industries, Inc. of Edison, N.J.) with the slit widths set to 1 nm for both excitation and emission. […] All spectra were corrected by subtraction of buffer or buffer plus ligand samples. GRP94 (50 μg/ml) was incubated in buffer A supplemented with 10 mM Mg(OAc)2 and the following concentrations of ligands for 1 hour at 37° C. […] Samples were then cooled to room temperature, transferred to a quartz cuvette, and the spectra collected.

HSP90 = HSP90 (Saccharomyces cerevisiae, UniProt P02829); settings: cited from earlier work
Sequence of HSP90 (P02829 whole entry): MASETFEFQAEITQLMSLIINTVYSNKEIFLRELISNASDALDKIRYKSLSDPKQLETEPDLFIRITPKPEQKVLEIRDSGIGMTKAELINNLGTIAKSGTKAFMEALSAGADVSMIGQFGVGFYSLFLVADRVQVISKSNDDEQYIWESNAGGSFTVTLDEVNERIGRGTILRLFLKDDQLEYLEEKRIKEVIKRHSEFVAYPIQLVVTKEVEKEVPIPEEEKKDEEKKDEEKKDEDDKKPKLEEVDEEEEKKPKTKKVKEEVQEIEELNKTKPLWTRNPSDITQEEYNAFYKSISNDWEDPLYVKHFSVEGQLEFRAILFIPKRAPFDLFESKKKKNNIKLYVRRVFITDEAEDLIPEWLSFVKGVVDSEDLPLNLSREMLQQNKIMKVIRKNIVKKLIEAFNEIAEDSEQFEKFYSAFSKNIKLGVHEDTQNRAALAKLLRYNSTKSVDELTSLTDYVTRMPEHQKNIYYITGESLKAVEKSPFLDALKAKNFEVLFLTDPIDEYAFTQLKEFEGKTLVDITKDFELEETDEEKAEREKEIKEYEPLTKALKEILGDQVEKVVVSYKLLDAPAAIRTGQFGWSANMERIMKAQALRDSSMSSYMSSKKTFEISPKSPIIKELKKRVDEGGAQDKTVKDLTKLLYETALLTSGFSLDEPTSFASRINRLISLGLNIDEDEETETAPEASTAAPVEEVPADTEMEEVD

GRP94 [4] = biological target: T1, GRP94; test: GRP94 autophosphorylation assay; type: biochemical, porcine; settings: 180 μM NECA or radicicol in 3.6% DMSO, 5 μg/ml heparin, 5 mM GTP
Description: (§1) Phosphorylation Assays. To assay for GRP94 autophosphorylation, 1 μM GRP94 was incubated with γ-[^32P]ATP (6000 cpm/pmol) (Amersham Pharmacia Biotech of Piscataway, N.J.), diluted with cold ATP to yield a final concentration of 0.15 mM ATP in a buffer containing 10 mM Mg(OAc)2 and 50 mM K-Hepes, pH 7.4. For the casein kinase assay, 1 unit of casein kinase II was incubated as described above, with the addition of 4 μM casein. […] The 25 μl reaction mixtures were incubated at 37° C. for 1 hour and quenched by addition of 10% trichloroacetic acid. Samples were analyzed by 10% SDS-PAGE gels and the phosphorylated species were quantitated using a Fuji MACBAS1000™ phosphorimaging system (Fuji Medical Systems of Stamford, Conn.).

casein kinase II = casein kinase II (Homo sapiens, UniProt P68400); test: Casein kinase assay; type: biochemical; settings: 180 μM NECA or radicicol in 3.6% DMSO, 5 μg/ml heparin, 5 mM GTP; 4 μM casein
Sequence of casein kinase II (P68400 whole entry): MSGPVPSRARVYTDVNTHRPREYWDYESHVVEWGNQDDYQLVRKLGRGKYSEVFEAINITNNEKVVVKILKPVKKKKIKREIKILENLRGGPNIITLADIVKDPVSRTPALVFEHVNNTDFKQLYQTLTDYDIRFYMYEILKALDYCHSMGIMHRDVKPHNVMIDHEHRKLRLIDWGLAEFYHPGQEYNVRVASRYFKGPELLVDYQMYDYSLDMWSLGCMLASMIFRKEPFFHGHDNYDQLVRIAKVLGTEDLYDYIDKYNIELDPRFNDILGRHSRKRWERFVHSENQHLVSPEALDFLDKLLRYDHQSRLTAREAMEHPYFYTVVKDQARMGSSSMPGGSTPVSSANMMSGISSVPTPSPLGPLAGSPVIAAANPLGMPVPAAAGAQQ
Sequence of casein kinase II (P67870 whole entry partner): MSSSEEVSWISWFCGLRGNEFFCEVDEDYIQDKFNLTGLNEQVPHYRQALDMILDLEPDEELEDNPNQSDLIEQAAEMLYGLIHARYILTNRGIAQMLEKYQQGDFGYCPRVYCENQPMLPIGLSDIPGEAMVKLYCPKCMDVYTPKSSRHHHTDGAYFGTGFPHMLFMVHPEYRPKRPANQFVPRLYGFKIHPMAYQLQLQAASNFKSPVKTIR
Description: as §1

T1 sequence (Q29092 22-804): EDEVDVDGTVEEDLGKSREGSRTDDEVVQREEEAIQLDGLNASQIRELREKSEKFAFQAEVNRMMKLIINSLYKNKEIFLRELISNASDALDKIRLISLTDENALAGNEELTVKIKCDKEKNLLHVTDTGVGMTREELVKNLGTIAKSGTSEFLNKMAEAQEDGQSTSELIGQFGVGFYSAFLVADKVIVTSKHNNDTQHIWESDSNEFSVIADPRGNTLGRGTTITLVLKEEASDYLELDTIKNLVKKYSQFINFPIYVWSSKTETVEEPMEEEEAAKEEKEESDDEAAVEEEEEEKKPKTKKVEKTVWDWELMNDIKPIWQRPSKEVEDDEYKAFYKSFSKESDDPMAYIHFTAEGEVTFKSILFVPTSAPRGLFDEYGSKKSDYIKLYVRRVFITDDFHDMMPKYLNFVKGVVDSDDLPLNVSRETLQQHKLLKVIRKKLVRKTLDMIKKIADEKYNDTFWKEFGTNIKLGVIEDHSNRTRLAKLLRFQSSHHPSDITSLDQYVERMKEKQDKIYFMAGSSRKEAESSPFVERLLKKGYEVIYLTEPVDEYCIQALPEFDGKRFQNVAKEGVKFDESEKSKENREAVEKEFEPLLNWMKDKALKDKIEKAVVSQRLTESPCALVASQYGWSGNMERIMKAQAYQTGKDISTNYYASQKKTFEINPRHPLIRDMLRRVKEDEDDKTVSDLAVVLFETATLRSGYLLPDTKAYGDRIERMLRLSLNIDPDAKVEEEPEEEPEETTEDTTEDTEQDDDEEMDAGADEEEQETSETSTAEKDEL

## O=S(=O)(O)c1cccc2cccc(Nc3ccccc3)c12 [8-ANS, 1,8-anilinonaphthalenesulfonate]
GRP94 [1]
  agonist activity for GRP94 activation: functions solely as an indicator and lacks agonist activity
  fluorophore binding to native versus heat shocked GRP94 (fluorescence emission): displays weak interactions with native GRP94, yet binds avidly following heat shock

## CCC(=O)c1ccc2cc(N(C)C)ccc2c1 [Prodan, 6-propionyl-2-(dimethylamino)naphthalene]
GRP94 [1]
  fluorophore binding to native versus heat shocked GRP94 (fluorescence emission): does not interact with the hydrophobic binding pocket(s) displayed by heat shocked GRP94

## Nc1ncnc2c1ncn2[C@@H]1O[C@H](CO)[C@@H](O)[C@H]1O [adenosine]
GRP94 [2]
  relative displacement activity in [3H]-NECA competition: relative displacement activity approximating that observed for ADP
  effect of excess Mg2+ on binding to GRP94: without effect on the binding of NECA or adenosine to GRP94

## Nc1ncnc2c1ncn2[C@@H]1O[C@H](COP(=O)(O)OP(=O)(O)O)[C@@H](O)[C@H]1O [ADP]
GRP94 [2]
  effect of excess Mg2+ on binding to GRP94: markedly stimulated the binding of ATP, ADP and AMP
GRP94 [2]; excess Mg2+
  relative affinities for GRP94 in presence of Mg2+: nearly identical relative affinities
GRP94 [3]
  change of GRP94 tryptophan fluorescence: the tryptophan fluorescence was decreased
HSP90; Prodromou et al. (1997)
  affinity of N-terminal domain of Hsp90, ADP relative to ATP: four-fold higher affinity than that observed for ATP

## Heparin
GRP94 [4]
  inhibition of GRP94 autophosphorylation (GRP94-derived kinase) activity: markedly attenuated GRP94-derived and casein kinase II activity
Casein kinase II
  inhibition of casein kinase II activity: markedly attenuated GRP94-derived and casein kinase II activity

## Nc1nc2c(ncn2[C@@H]2O[C@H](COP(=O)(O)OP(=O)(O)OP(=O)(O)O)[C@@H](O)[C@H]2O)c(=O)[nH]1 [GTP]
GRP94 [2]
  nucleoside base specificity: binding to GRP94 by [3H]-NECA displacement: little to no binding
GRP94 [4]
  inhibition of GRP94 autophosphorylation (GRP94-derived kinase) activity: markedly attenuated GRP94-derived and casein kinase II activity
Casein kinase II
  inhibition of casein kinase II activity: markedly attenuated GRP94-derived and casein kinase II activity

## C[C@@H]1C[C@H]2O[C@@H]2/C=C\C=C\C(=O)Cc2c(Cl)c(O)cc(O)c2C(=O)O1 [radicicol]
Casein kinase II
  inhibition of casein kinase II activity: neither NECA nor radicicol, both of which bind to the N-terminal nucleotide binding domain of GRP94, significantly inhibit GRP94 derived or casein kinase II activity below the solvent background
HSP90; Roe et al. (1999)
  binding stoichiometry to Hsp90: 2 mol radicicol/mol Hsp90 dimer

## Nc1ncnc2c1ncn2[C@@H]1O[C@H](COP(=O)(O)O)[C@@H](O)[C@H]1O [AMP]
GRP94 [2]
  effect of excess Mg2+ on binding to GRP94: markedly stimulated the binding of ATP, ADP and AMP

## Nc1ncnc2c1ncn2[C@H]1C[C@H](O)[C@@H](COP(=O)(O)OP(=O)(O)OP(=O)(O)O)O1 [deoxyATP]
GRP94 [2]
  nucleoside base specificity: binding to GRP94 by [3H]-NECA displacement: GRP94 could bind both ATP and deoxyATP

## O=c1ccn([C@@H]2O[C@H](COP(=O)(O)OP(=O)(O)OP(=O)(O)O)[C@@H](O)[C@H]2O)c(=O)[nH]1 [UTP]
GRP94 [2]
  nucleoside base specificity: binding to GRP94 by [3H]-NECA displacement: little to no binding

## Nc1ccn([C@@H]2O[C@H](COP(=O)(O)OP(=O)(O)OP(=O)(O)O)[C@@H](O)[C@H]2O)c(=O)n1 [CTP]
GRP94 [2]
  nucleoside base specificity: binding to GRP94 by [3H]-NECA displacement: little to no binding
